Test results from ChEMBL document CHEMBL6074678, “Selectively Antagonizing the NOD1-Mediated Inflammatory Signaling Pathway Mitigates the Gastric Inflammation Induced by Helicobacter pylori Infection” (J Med Chem, 2024).
pIC50: −log10 of the molar value.

Columns and labels:
[1] = target: T1, Nucleotide-binding oligomerization domain-containing protein 1 (Homo sapiens, UniProt Q9Y239); assay: Antagonist activity at human NOD1 expressed in HEK-Blue cells assessed as decrease in SEAP secretion incubated for 3 hrs followed by C12-iE-DAP stimulation for 20 hrs by spectrophotometry; format: cell-based, HEK-Blue hNOD1
T1 sequence (Q9Y239 whole entry): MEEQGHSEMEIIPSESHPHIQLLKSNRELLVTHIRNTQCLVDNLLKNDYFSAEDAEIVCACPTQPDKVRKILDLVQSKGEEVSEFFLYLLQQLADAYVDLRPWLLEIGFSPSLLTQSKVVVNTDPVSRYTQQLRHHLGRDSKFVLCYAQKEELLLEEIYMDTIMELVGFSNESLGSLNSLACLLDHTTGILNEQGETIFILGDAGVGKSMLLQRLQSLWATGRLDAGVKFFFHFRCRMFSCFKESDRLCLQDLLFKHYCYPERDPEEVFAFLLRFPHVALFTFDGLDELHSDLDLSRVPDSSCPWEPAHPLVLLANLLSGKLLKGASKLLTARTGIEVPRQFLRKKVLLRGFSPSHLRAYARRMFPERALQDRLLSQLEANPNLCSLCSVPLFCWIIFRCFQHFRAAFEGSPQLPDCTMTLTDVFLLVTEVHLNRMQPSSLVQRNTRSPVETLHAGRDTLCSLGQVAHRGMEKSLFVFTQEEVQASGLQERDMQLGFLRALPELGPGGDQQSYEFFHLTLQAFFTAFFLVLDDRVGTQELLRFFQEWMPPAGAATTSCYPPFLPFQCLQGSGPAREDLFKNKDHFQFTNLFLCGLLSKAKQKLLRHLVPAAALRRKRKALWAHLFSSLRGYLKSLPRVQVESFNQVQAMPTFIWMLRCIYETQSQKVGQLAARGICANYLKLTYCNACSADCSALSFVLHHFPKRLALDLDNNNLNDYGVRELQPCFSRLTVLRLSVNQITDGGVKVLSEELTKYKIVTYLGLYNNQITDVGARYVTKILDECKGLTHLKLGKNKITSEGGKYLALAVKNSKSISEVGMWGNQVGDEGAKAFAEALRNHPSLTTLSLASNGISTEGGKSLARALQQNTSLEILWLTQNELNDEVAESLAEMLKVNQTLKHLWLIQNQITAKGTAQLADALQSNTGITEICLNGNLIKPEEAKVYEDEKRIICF

[2] = target: T2, Nucleotide-binding oligomerization domain-containing protein 2 (Mus musculus) (UniProt Q8K3Z0); assay: Inhibition of mouse NOD2 at 1 uM relative to control
T2 sequence (whole entry): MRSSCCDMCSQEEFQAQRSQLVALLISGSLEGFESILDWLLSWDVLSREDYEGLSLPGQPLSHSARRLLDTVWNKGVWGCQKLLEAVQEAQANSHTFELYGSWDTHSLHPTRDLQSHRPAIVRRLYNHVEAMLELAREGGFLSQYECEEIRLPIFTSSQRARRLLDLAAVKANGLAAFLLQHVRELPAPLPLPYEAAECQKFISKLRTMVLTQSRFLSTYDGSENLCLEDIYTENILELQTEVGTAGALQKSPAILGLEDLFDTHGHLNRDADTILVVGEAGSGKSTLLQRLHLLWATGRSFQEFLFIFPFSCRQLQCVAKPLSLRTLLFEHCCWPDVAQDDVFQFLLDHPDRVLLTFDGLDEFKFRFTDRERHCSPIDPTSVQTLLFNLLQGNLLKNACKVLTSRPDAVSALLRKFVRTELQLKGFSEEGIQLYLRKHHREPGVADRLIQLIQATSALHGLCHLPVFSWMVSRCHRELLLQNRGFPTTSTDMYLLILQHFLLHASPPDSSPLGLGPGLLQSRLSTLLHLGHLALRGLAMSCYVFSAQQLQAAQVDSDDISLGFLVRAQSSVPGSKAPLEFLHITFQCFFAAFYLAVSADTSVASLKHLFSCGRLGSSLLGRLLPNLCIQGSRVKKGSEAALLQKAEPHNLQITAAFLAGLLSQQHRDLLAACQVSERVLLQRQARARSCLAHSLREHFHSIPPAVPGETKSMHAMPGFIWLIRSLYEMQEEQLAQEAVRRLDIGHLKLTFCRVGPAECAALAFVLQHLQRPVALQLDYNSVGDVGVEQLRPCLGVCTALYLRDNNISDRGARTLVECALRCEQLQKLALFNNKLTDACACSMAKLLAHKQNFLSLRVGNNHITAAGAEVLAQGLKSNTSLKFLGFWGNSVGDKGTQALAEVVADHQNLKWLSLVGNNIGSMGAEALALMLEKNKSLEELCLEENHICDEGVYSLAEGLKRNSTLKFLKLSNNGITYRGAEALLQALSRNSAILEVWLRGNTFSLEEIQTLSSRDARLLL

[3] = target: Toll-like receptor 4 (Homo sapiens) (UniProt O00206); assay: Inhibition of human TLR4 at 1 uM relative to control
Toll-like receptor 4 (Homo sapiens), sequence (O00206 whole entry): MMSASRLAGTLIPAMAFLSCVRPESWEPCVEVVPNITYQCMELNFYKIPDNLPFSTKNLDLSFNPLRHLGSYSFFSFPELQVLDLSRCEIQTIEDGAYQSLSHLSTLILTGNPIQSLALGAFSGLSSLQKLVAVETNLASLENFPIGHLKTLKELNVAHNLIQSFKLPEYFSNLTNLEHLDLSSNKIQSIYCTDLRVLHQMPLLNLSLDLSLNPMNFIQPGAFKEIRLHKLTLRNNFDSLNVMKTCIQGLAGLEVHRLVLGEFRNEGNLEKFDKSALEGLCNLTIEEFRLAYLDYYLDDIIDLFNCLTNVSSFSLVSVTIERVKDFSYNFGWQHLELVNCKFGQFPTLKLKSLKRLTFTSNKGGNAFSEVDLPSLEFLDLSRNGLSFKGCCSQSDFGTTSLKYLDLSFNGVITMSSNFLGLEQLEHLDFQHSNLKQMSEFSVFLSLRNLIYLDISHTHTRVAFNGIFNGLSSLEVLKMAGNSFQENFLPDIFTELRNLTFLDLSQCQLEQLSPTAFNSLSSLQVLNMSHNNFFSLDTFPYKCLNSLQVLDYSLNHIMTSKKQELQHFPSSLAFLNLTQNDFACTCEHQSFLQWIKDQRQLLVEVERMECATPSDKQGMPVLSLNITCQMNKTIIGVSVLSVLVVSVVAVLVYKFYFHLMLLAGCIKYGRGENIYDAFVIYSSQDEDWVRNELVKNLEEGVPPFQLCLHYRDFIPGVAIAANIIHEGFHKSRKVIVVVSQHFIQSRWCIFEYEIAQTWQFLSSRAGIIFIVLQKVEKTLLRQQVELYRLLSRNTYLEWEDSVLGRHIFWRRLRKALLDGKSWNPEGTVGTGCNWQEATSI

pIC50 [1] | inhibition [2] [%] | inhibition [3] [%] | SMILES
9.05 | < 10 | 15.8 | CS(=O)(=O)c1ccc2nc(Cl)n(-c3ccc(Cl)c(NS(=O)(=O)c4ccc5ncsc5c4)c3)c(=O)c2c1
9.10 | 21.9 | 10 | CS(=O)(=O)c1ccc2nc(Cl)n(-c3ccc(Cl)c(NS(=O)(=O)c4c(F)cccc4F)c3)c(=O)c2c1
8.66 | 20.2 | < 10 | N#Cc1ccc2nc(Cl)n(-c3ccc(Cl)c(NS(=O)(=O)c4c(F)cccc4F)c3)c(=O)c2c1
